Experimental data published in ChEMBL document CHEMBL3352043, “Discovery of small-molecule inhibitors selectively targeting the DNA-binding domain of the human androgen receptor” (J Med Chem, 2014).
Active and inactive are the calls of the source. The calls are words filed in the database; no cut-off is given here.

How the values were obtained:
Androgen receptor [1] = molecular target: T1, Androgen receptor (Homo sapiens, UniProt P10275); assay: Inhibition of androgen receptor transcriptional activity in human LNCaP cells after 3 days by eGFP assay; format: cell-based
T1 sequence (P10275 whole entry): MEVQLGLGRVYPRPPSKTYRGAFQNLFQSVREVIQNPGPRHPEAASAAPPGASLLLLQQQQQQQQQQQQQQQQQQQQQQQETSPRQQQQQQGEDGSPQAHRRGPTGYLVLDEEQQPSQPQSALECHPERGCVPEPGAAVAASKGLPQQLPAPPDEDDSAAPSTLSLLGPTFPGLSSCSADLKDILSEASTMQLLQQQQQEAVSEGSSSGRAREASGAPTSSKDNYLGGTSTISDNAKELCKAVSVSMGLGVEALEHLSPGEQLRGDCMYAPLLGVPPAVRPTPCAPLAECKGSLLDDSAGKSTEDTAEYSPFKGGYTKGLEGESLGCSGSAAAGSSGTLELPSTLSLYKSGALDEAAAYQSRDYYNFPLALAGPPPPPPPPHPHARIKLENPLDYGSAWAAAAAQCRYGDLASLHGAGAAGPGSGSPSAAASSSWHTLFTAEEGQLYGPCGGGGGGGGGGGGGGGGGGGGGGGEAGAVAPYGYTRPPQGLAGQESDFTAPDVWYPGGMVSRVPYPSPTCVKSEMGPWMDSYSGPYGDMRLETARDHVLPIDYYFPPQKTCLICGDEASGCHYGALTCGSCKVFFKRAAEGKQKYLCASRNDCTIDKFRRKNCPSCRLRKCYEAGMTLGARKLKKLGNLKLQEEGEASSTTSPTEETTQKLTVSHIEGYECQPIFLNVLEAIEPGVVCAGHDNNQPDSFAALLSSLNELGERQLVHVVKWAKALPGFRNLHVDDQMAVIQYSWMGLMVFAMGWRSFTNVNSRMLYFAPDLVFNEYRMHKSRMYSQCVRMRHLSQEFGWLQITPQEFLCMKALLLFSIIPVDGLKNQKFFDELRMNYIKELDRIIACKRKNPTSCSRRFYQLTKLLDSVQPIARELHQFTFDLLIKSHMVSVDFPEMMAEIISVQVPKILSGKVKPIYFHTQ

Androgen receptor [2] = molecular target: T1, Androgen receptor; assay: Inhibition of androgen receptor in human LNCaP cells assessed as inhibition of prostate-specific antigen secretion into media after 3 days; format: cell-based
[3] = Growth inhibition of AR-negative human PC3 cells after 3 days by MTS assay; format: cell-based; details: pc-3, 72 h
LNCaP = assay: Growth inhibition of AR-dependent human LNCAP cells at 0.001 to 3 uM after 3 days by MTS assay; format: functional, cell-based
[4] = Stability of the compound in RPMI plus 5% charcoal stripped serum media after 1 hr by MS analysis; format: physicochemical

Structure (SMILES)	IC50 (Androgen receptor [1]) [µM]	IC50 (Androgen receptor [2]) [µM]	Stability [4]	Activity [3]	growth inhibition (GI) (LNCaP)
Brc1cn(-c2csc(N3CCOCC3)n2)cn1	2.8	1.74	–	–	–
Clc1ncn(-c2csc(N3CCOCC3)n2)c1Br	0.33	0.44	–	–	–
N#Cc1ccc(-c2ccc(N3CCOCC3)s2)cc1	1.44	0.89	–	–	–
Oc1cc(F)ccc1-c1csc(N2CCOCC2)n1	1.19	0.81	–	–	–
c1ccc2nc(-c3ccncc3)ccc2c1	4.2	2.26	–	–	–
CNc1nc(-c2ccc3ccccc3c2)cs1	3.17	3.91	–	–	–
Fc1ccc(-c2csc(-c3ccncc3)n2)cc1	1.27	–	–	–	–
Oc1c(F)cccc1-c1csc(N2CCOCC2)n1	0.27	0.15	–	–	–
COc1cc(F)ccc1-c1csc(N2CCOCC2)n1	0.3	0.23	–	–	–
Nc1nc(-c2ccc3ccccc3c2)cs1	9.16	10.6	–	–	–
Cc1cc(C=Cc2ccc3cc(N(C)C)ccc3[n+]2C)c(C)n1-c1ccccc1.O=C([O-])c1cc2ccccc2c(Cc2c(O)c(C(=O)O)cc3ccccc23)c1O	–	–	–	Toxic	–
Cc1ccc(C)c(-c2csc(N3CCOCC3)n2)c1	0.62	0.52	–	–	–
c1ccc(-c2csc(-c3ccncc3)n2)cc1	1.2	0.63	–	–	–
Clc1c(Br)ncn1-c1csc(N2CCOCC2)n1	1.45	1.28	–	–	–
CS(=O)(=O)c1c(F)cccc1-c1csc(N2CCOCC2)n1	3.56	–	–	–	–
COc1c(-c2csc(N3CCOCC3)n2)ccc(F)c1F	0.18	0.25	–	–	–

Structure (SMILES)	IC50 (Androgen receptor [1]) [µM]	IC50 (Androgen receptor [2]) [µM]	Stability [4]	Activity [3]	growth inhibition (GI) (LNCaP)
Cc1cc(/C=C/c2ccc3cc(N(C)C)ccc3[n+]2C)c(C)n1-c1ccccc1	–	–	–	–	inactive
Cc1ncn(-c2csc(N3CCOCC3)n2)c1C	3.56	2.42	–	–	–
Ic1ncn(-c2csc(N3CCOCC3)n2)c1I	1.73	1.81	Stable	–	–
Cc1scc(-c2csc(N3CCOCC3)n2)c1C	0.25	0.43	–	–	–
FC(F)(F)[C@H]1CN(c2nc(-c3ccccc3)cs2)CCO1	1.65	0.16	–	–	–
Oc1c(-c2csc(N3CCOCC3)n2)ccc(F)c1F	0.8	0.7	–	–	–
Clc1ncn(-c2csc(N3CCOCC3)n2)c1Cl	0.68	0.57	Stable	–	–
Clc1ncn(-c2csc(N3CCOCC3)n2)c1I	2.61	4.02	–	–	–
Clc1cn(-c2csc(N3CCOCC3)n2)cn1	0.96	0.72	–	–	–
Oc1ccc(-c2nc(-c3c[nH]c4ccccc34)cs2)cc1	5.05	6.46	–	–	–
Clc1ccc(-c2csc(N3CCOCC3)n2)cc1Cl	3.32	2.96	–	–	–
Oc1ccc(-c2ccc3ccccc3n2)cc1	9.84	–	–	–	–
Fc1ccc(-c2csc(N3CCSCC3)n2)cc1	1.59	–	–	–	–
COc1c(F)cc(O)cc1-c1csc(N2CCOCC2)n1	3.02	–	–	–	–
Clc1ccc(-c2csc(N3CCOCC3)n2)c(Cl)c1	1.66	1.32	–	–	–

The next lines start with results.

IC50 (Androgen receptor [1]) [µM]	IC50 (Androgen receptor [2]) [µM]	Stability [4]	Structure (SMILES)	Activity [3]	growth inhibition (GI) (LNCaP)
0.65	0.41	–	Fc1ccc(-c2csc(N3CCOCC3)n2)cc1	–	–
2.94	–	–	c1cc(-c2csc(N3CCOCC3)n2)ccn1	–	–
1.03	0.69	–	c1ccc(-c2csc(N3CCCCC3)n2)cc1	–	–
0.26	0.22	–	c1cc(-c2csc(N3CCOCC3)n2)cs1	–	–
0.62	–	–	c1ccc(-c2csc(N3CCSCC3)n2)cc1	–	–
5.04	–	–	OCc1sc(N2CCOCC2)nc1-c1ccccc1	–	–
2.58	–	–	c1ccc(-c2csc(N3CCOCC3)n2)nc1	–	–
7.41	8.08	–	Oc1ccc2nc(N3CCOCC3)sc2c1	–	–
1.46	–	–	Cc1sc(N2CCOCC2)nc1-c1ccccc1	–	–
1.38	2.03	–	Nc1ccccc1-c1csc(N2CCOCC2)n1	–	–
0.52	0.51	–	c1ccc(-c2ccc(N3CCOCC3)s2)cc1	–	–
5.8	8.43	–	CCc1sc(N2CCOCC2)nc1-c1ccccc1	–	–
0.61	0.58	–	FC(F)(F)c1cccc(-c2csc(N3CCOCC3)n2)c1	–	–
1.24	0.84	–	c1ccc(-c2cc(N3CCOCC3)cs2)cc1	–	–
